Measurements reported in patent US9828357B2, “Cyclic compounds” (Takeda Pharmaceutical Company Limited, priority 2015, dated 2017).

What follows are molecules tested against T1, TLR4 (Mus musculus, UniProt Q9QUK6) (assay: Inhibitory effect with respect to NO production (LPS/interferon γ-stimulated RAW264.7)). Settings: RAW264.7 cells, LPS 1.25 ng/mL and mouse interferon γ 0.2 ng/mL, nitrite ion in culture supernatant.
T1 construct: endogenous in cells; host or cells: RAW264.7 (murine macrophage cell line)
T1 sequence (Q9QUK6 26-835): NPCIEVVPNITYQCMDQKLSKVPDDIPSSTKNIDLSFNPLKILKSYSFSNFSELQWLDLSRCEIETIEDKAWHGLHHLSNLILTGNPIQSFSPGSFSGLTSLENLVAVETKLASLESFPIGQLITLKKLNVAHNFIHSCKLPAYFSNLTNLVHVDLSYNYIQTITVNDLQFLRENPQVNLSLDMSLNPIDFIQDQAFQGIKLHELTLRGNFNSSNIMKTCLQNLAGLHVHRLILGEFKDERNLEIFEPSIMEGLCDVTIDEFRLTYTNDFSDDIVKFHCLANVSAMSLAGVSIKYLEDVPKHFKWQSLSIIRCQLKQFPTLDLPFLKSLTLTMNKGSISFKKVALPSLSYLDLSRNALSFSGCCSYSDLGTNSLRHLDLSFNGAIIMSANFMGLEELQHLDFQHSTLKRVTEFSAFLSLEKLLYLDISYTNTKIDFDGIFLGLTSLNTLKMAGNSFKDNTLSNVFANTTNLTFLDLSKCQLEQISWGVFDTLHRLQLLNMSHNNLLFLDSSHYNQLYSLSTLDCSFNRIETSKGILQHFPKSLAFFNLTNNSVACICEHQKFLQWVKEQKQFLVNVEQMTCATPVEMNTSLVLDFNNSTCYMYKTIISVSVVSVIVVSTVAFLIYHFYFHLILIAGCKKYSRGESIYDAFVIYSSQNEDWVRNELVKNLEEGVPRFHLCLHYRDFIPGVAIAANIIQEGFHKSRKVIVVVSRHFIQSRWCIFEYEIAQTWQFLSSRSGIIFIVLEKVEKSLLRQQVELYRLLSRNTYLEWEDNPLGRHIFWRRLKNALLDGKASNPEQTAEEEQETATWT
T1 sequence (Q9JHF9 19-160 partner): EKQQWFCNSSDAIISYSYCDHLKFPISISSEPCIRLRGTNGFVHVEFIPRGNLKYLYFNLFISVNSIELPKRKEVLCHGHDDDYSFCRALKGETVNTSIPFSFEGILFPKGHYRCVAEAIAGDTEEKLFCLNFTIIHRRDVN
Format: cell-based, murine
Procedure: The inhibitory effect on TLR4 was determined using the inhibition rate due to the test compound with respect to NO production as a result of addition of lipopolysaccharide (LPS) using murine macrophage cell line RAW264.7. The cells were adjusted to 2×10^6 cells/mL using RPM1-1640 culture medium (phenol red free) supplemented with 10% inactivated bovine fetal serum, and were plated on 384 well plate so as to contain 6×10^4 cells/30 μL per well. Thereafter the cells were cultured at 37° C. overnight under 5% CO2/95% air. The test compound dissolved in DMSO was diluted 200 times using RPM1-1640 culture medium and adjusted so as to form a compound concentration of 500 nM. The prepared test compound 10 μL (final concentration 100 nM) was added to the cells, and LPS (Sigma) and mouse interferon γ (Wako Pure Chemicals) were added in amounts of 10 μL so as to form final concentrations of 1.25 ng/mL and 0.2 ng/mL respectively. The cells were further cultured overnight, and then the nitrite ion (stable NO metabolite) concentration in the culture supernatant was measured as an index of NO production. The nitrite ion concentration was assayed by adding 10 μL of 20 μg/mL 2,3-diamino naphthalene (DAN) dissolved in 0.2N HCl to 20 μL culture supernatant, incubating at room temperature for ten minutes, and then adding 10 μL of 0.5N NaOH, and measuring the fluorescent value at 460 nm (excitation wavelength 355 nm) using an EnVision plate reader (Perkin Elmer). The NO production inhibition rate (%) was calculated using the value without the addition of stimulating agent as control of 100% inhibition, and the value without the addition of the compound as control of 0% inhibition.
For `CCOC(=O)C1=CC2(CC[C@H]1S(=O)(=O)[C@H]1CCc3cc(F)cc(Cl)c31)O[C@@H](CO)[C@H](CO)O2` [Compound 15, Ethyl (2S,3S,8R)-8-(((1S)-7-chloro-5-fluoro-2,3-dihydro-1H-inden-1-yl)sulfonyl)-2,3-bis(hydroxymethyl)-1,4-dioxaspiro[4.5]dec-6-ene-7-carboxylate], the “NO production inhibitory effect at 100 nM (% inhibition)” value was 106 % inhibition. For `CCOC(=O)C1=CC2(CCC1S(=O)(=O)C1CCc3c(F)ccc(Cl)c31)O[C@@H](CO)[C@H](CO)O2` (stereo partly drawn) [Compound 9, Ethyl (2S, 3S)-8-((7-chloro-4-fluoro-2,3-dihydro-1H-inden-1-yl)sulfonyl)-2,3-bis(hydroxymethyl)-1,4-dioxaspiro[4.5]dec-6-ene-7-carboxylate], the “NO production inhibitory effect at 100 nM (% inhibition)” value was 110 % inhibition. `CCOC(=O)C1=CC2(CCC1S(=O)(=O)C1CCc3ccc(F)c(Cl)c31)O[C@@H](CO)[C@H](CO)O2` (stereo partly drawn) [Compound 10, Ethyl (2S, 3S)-8-((7-chloro-6-fluoro-2,3-dihydro-1H-inden-1-yl)sulfonyl)-2,3-bis(hydroxymethyl)-1,3-dioxaspiro[4.5]dec-6-ene-7-carboxylate] was tested, and the “NO production inhibitory effect at 100 nM (% inhibition)” value was 100 % inhibition. With `CCOC(=O)C1=CC2(CCC1S(=O)(=O)C1CCc3cc(F)cc(Br)c31)O[C@@H](CO)[C@H](CO)O2` (stereo partly drawn) [Compound 11, Ethyl (2S, 3S)-8-((7-bromo-5-fluoro-2,3-dihydro-1H-inden-1-yl)sulfonyl)-2,3-bis(hydroxymethyl)-1,4-dioxaspiro[4.5]dec-6-ene-7-carboxylate] the “NO production inhibitory effect at 100 nM (% inhibition)” value was 110 % inhibition. With `CCOC(=O)C1=CC2(CCC1S(=O)(=O)C1CCc3cccc(C)c31)O[C@@H](CO)[C@H](CO)O2` (stereo partly drawn) [Compound 13, Ethyl (2S, 3S)-2,3-bis(hydroxymethyl)-8-((7-methyl-2,3-dihydro-1H-inden-1-yl)sulfonyl)-1,4-dioxaspiro[4.5]dec-6-ene-7-carboxylate] the “NO production inhibitory effect at 100 nM (% inhibition)” value was 100 % inhibition. In the case of `CCOC(=O)C1=CC2(CCC1S(=O)(=O)C1CCc3cccc(Br)c31)O[C@@H](CO)[C@H](CO)O2` (stereo partly drawn) [Compound 12, Ethyl (2S, 3S)-8-((7-bromo-2,3-dihydro-1H-inden-1-yl)sulfonyl)-2,3-bis(hydroxymethyl)-1,4-dioxaspiro[4.5]dec-6-ene-7-carboxylate], the “NO production inhibitory effect at 100 nM (% inhibition)” value is reported as 100 % inhibition. With `CCOC(=O)C1=CCCC[C@H]1S(=O)(=O)[C@H]1CCc2cccc(Cl)c21` [Compound 18, Ethyl (6R)-6-(((1S)-7-chloro-2,3-dihydro-1H-inden-1-yl)sulfonyl)cyclohex-1-ene-1-carboxylate] the “NO production inhibitory effect at 100 nM (% inhibition)” value was 104 % inhibition. `CC1(COC(=O)C2=CC3(CCC2S(=O)(=O)C2CCc4cccc(Cl)c42)O[C@@H](CO)[C@H](CO)O3)CC1` (stereo partly drawn) [Compound 8, (1-methylcyclopropyl)methyl (2S,3S)-8-((7-chloro-2,3-dihydro-1H-inden-1-yl)sulfonyl)-2,3-bis(hydroxymethyl)-1,4-dioxaspiro[4.5]dec-6-ene-7-carboxylate] was tested, and the “NO production inhibitory effect at 100 nM (% inhibition)” value was 99 % inhibition. For `CCOC(=O)C1=CC2(CCC1S(=O)(=O)C1CCc3c(Cl)cccc31)O[C@@H](CO)[C@H](CO)O2` (stereo partly drawn) [Compound 3, Ethyl (2S,3S)-8-((4-chloro-2,3-dihydro-1H-inden-1-yl)sulfonyl)-2,3-bis(hydroxymethyl)-1,4-dioxaspiro[4.5]dec-6-ene-7-carboxylate], the “NO production inhibitory effect at 100 nM (% inhibition)” value was 110 % inhibition. With `CCOC(=O)C1=CC2(CC[C@H]1S(=O)(=O)[C@H]1CCc3cccc(Cl)c31)O[C@@H](CO)[C@H](CO)O2` [Compound 7, Ethyl (2S,3S,8R)-8-(((1S)-7-chloro-2,3-dihydro-1H-inden-1-yl)sulfonyl)-2,3-bis(hydroxymethyl)-1,4-dioxaspiro[4.5]dec-6-ene-7-carboxylate] the “NO production inhibitory effect at 100 nM (% inhibition)” value was 105 % inhibition. In the case of `CCOC(=O)C1=CCCCC1S(=O)(=O)C1CCc2c(Cl)cccc21` (stereo not drawn) [Compound 1, Ethyl 6-((4-chloro-2,3-dihydro-1H-inden-1-yl)sulfonyl)cyclohex-1-ene-1-carboxylate], the “NO production inhibitory effect at 100 nM (% inhibition)” value is reported as 96 % inhibition. With `CCOC(=O)C1=CCOCC1S(=O)(=O)C1CCc2cccc(Cl)c21` (single isomer, unassigned) [Compound 20] the “NO production inhibitory effect at 100 nM (% inhibition)” value was 104 % inhibition. With `CCOC(=O)C1=CC2(CC[C@H]1S(=O)(=O)[C@H]1CCCc3cccc(Cl)c31)O[C@@H](CO)[C@H](CO)O2` [Compound 19, Ethyl (2S,3S,8R)-8-(((1S)-8-chloro-1,2,3,4-tetrahydronaphthalen-1-yl)sulfonyl)-2,3-bis(hydroxymethyl)-1,4-dioxaspiro[4.5]dec-6-ene-7-carboxylate] the “NO production inhibitory effect at 100 nM (% inhibition)” value was 107 % inhibition. With `CCOC(=O)C1=CC2(CCC1S(=O)(=O)C1CCc3c(Cl)cccc31)O[C@H](CO)[C@@H](CO)O2` (stereo partly drawn) [Compound 2, Ethyl (2R,3R)-8-((4-chloro-2,3-dihydro-1H-inden-1-yl)sulfonyl)-2,3-bis(hydroxymethyl)-1,4-dioxaspiro[4.5]dec-6-ene-7-carboxylate] the “NO production inhibitory effect at 100 nM (% inhibition)” value was 99 % inhibition.

Same assay, conditions: RAW264.7 cells, LPS 1.25 ng/mL and mouse interferon γ 0.2 ng/mL, nitrite ion in culture supernatant, 0.1 µM
In the case of `CCOC(=O)C1=CC2(CCC1S(=O)(=O)C1CCCc3cccc(Cl)c31)O[C@H](CO)[C@@H](CO)O2` (single isomer, unassigned) [Compound 17], the “NO production inhibitory effect at 100 nM (% inhibition)” value is reported as 86 % inhibition. With `CCOC(=O)C1=CC(O)CCC1S(=O)(=O)C1CCc2cccc(Cl)c21` (racemic) [Compound 4, Ethyl 6-((7-chloro-2,3-dihydro-1H-inden-1-yl)sulfonyl)-3-hydroxycyclohex-1-ene-1-carboxylate] the “NO production inhibitory effect at 100 nM (% inhibition)” value was 110 % inhibition. With `CCOC(=O)C1=CC(O)CCC1S(=O)(=O)C1CCc2cccc(Cl)c21` (racemic) [Compound 5, Ethyl 6-((7-chloro-2,3-dihydro-1H-inden-1-yl)sulfonyl)-3-hydroxycyclohex-1-ene-1-carboxylate] the “NO production inhibitory effect at 100 nM (% inhibition)” value was 100 % inhibition. With `CCOC(=O)C1=CC2(CCC1S(=O)(=O)C1CCCc3cccc(Cl)c31)O[C@H](CO)[C@@H](CO)O2` (single isomer, unassigned) [Compound 16] the “NO production inhibitory effect at 100 nM (% inhibition)” value was 108 % inhibition.
